Data set [1] in a line: Relative humidity stability over saturated salt solutions at ambient temperature, analysed by XRPD. As to conditions: for Dissociation by XRPD: 75, 94, or 98% RH after four weeks. In kind it is physicochemical. As to the method:
Relative humidity (RH) conditions were created at ambient temperatures using saturated salt solutions: NaCl ˜75%, KNO3 ˜94%, and K2SO4 ˜98%. Vials of each sample containing approximately 10 mg, were subjected to physical stability at ˜75% RH, ˜94% RH, and ˜98% RH for one day, three days, one week, and four weeks within a closed chamber. […] Upon completion of the duration allowed, the samples were immediately analyzed by XRPD.

A further data set relates to cancer cell lines. As to conditions: cancer cell lines in vitro; cited from earlier work.
Data set [2] is described as follows: Physical stability upon slurrying in water. In kind it is physicochemical. The settings on record: for Behaviour upon slurrying in water: three days. The text has this: […]. […] […]. […]
Data set [3] can be described thus: Powder dissolution of cocrystal 4 (attempted for cocrystal 3): slurry in water at ambient, UV at 315 nm. It is filed as physicochemical.
Data set [4] can be described thus: Physical stability at elevated temperature and/or relative humidity, analysed by XRPD. In kind it is physicochemical. How it is done: Physical stability was evaluated at approximately 40° C., 60° C., 25° C./75% RH, 25° C./98% RH, and 40° C./75% RH and XRPD was used to detect dissociation or form conversion. Vials of each cocrystal were subjected to each condition for durations of two weeks, one month, and two months. Upon completion of the duration allowed, the samples were immediately analyzed by XRPD.

Data set [5] can be described thus: Attempted intrinsic dissolution in 900 mL water at ambient conditions. It is filed as physicochemical. The settings on record: after 30 minutes. As to the method:
Intrinsic dissolution in 900 mL water at ambient conditions was also attempted. […] Therefore, a concentration vs. time and intrinsic dissolution rate value were unobtainable at these conditions.

How the values of data set [6] were obtained: Solubility and concentration measurements were performed using ultraviolet (UV) spectroscopy on a Spectramax Microplate Reader.
Appropriate dilutions with water were made as necessary to maintain absorbance readings within the standard curve. All experiments were repeated three times to evaluate the standard deviation, while particle size was not controlled for any of the experiments.

Consider 6 compounds from patent US8318807B2 (Laurus Labs Private Limited, priority 2010, dated 2012).

Regarding `Cn1c(=O)c2c(ncn2C)n(C)c1=O` [caffeine], the “Results (XRPD)” value is on record as “caffeine anhydrous” in data set [1] (75% RH, 1 week); “caffeine anhydrous” in data set [1] (75% RH, 4 weeks); “caffeine anhydrous” in data set [1] (75% RH, 1 day); “caffeine anhydrous” in data set [1] (75% RH, 3 days); “caffeine hydrate” in data set [1] (94% RH, 1 week (7 days)); “caffeine hydrate” in data set [1] (94% RH, 4 weeks). Moreover, the “Results (XRPD)” value in data set [1] (94% RH, 1 day) is reported as “caffeine anhydrous”; in data set [1] (94% RH, 3 days), “caffeine anhydrous/caffeine hydrate”; in data set [1] (98% RH, 1 week), “caffeine hydrate”; in data set [1] (98% RH, 4 weeks), “caffeine hydrate”; in data set [1] (98% RH, 1 day), “caffeine hydrate”; in data set [1] (98% RH, 3 days), “caffeine hydrate”. Further, the Conversion to hydrate entry in data set [1] (75% RH, up to four weeks) is “does not display signs of conversion”. Besides, the “Time of partial conversion to hydrate/dihydrate” value in data set [1] (94% RH) was “between one and three days”. Moreover, in data set [1] (98% RH), the “Time of (full) conversion to hydrate/dihydrate” value is recorded as “less than one day”.

For `COc1cc(/C=C/c2ccc(O)cc2)cc(OC)c1` [pterostilbene, trans-3,5-dimethoxy-4′-hydroxystilbene], the “Results (XRPD)” value was “pterostilbene (Form I)” in data set [1] (75% RH, 4 weeks); “pterostilbene (Form I)” in data set [1] (94% RH, 4 weeks); “pterostilbene (Form I)” in data set [1] (98% RH, 4 weeks). Further, in the data set with cancer cell lines, the Cytotoxic activity result was “cytotoxic activity”.

As to `COc1cc(/C=C/c2ccc(O)cc2)cc(OC)c1.Cn1c(=O)c2c(ncn2C)n(C)c1=O` [cocrystal 1, pterostilbene:caffeine], in data set [1], the “Dissociation by XRPD” value was “no dissociation”.

For the compound `COc1cc(/C=C/c2ccc(O)cc2)cc(OC)c1.Cn1c(=O)c2c(ncn2C)n(C)c1=O` [cocrystal 1 (Form I), pterostilbene:caffeine], the “Results (XRPD)” value in data set [1] (75% RH, 1 week) is on record as “cocrystal 1 (Form I), no caffeine hydrate”; in data set [1] (75% RH, 1 week, then additional stress at 98% RH, 1 week) it was “cocrystal 1 (Form I), no caffeine hydrate”; in data set [1] (75% RH, 4 weeks), “cocrystal 1 (Form I), no caffeine hydrate”; in data set [1] (75% RH, 1 day), “cocrystal 1 (Form I), no caffeine hydrate”; in data set [1] (75% RH, 1 day, then additional stress at 98% RH, 1 day), “cocrystal 1 (Form I), no caffeine hydrate”; in data set [1] (75% RH, 3 days) it was “cocrystal 1 (Form I), no caffeine hydrate”. In addition, the “Results (XRPD)” value in data set [1] (94% RH, 1 week (7 days)) was “cocrystal 1 (Form I), no caffeine hydrate”; in data set [1] (94% RH, 4 weeks), “cocrystal 1 (Form I), no caffeine hydrate”; in data set [1] (94% RH, 1 day), “cocrystal 1 (Form I), no caffeine hydrate”; in data set [1] (94% RH, 3 days), “cocrystal 1 (Form I), no caffeine hydrate”; in data set [1] (94% RH, 7 days, then additional stress at 98% RH, 4 weeks), “cocrystal 1 (Form I), no caffeine hydrate”; in data set [2] (Table 19, slurry, 2 days), “cocrystal 1 (Form I), no caffeine hydrate”. In addition, in data set [2], the “Behaviour upon slurrying in water” value is reported as “precipitation of pterostilbene”.

Take “pterostilbene:glutaric acid [cocrystal 3]”: in data set [3] (concluded from crystalline pterostilbene being the only product after slurrying in water), the “Solubility relative to pterostilbene” value was “greater than the solubility of pterostilbene”. For the same compound, the “XRPD result after slurrying in water” value in data set [3] (water at ambient, after 5 minutes) is recorded as “crystalline pterostilbene”. Besides, in data set [1], the “Dissociation by XRPD” value is “no dissociation”. The “Results (by XRPD)” value was “cocrystal 3” in data set [4] (25° C./75% RH, 2 weeks); “cocrystal 3” in data set [4] (25° C./75% RH, 4 weeks); “cocrystal 3” in data set [4] (25° C./75% RH, 8 weeks); “cocrystal 3” in data set [4] (25° C./98% RH, 2 weeks); “cocrystal 3” in data set [4] (25° C./98% RH, 4 weeks); “cocrystal 3” in data set [4] (25° C./98% RH, 8 weeks). The “Results (by XRPD)” value in data set [4] (40° C., 2 weeks) is “cocrystal 3”; in data set [4] (40° C., 4 weeks), “cocrystal 3”; in data set [4] (40° C., 8 weeks), “cocrystal 3”; in data set [4] (40° C./75% RH, 2 weeks), “cocrystal 3”; in data set [4] (40° C./75% RH, 4 weeks), “cocrystal 3”; in data set [4] (40° C./75% RH, 8 weeks) it was “cocrystal 3”. Also, the “Results (by XRPD)” value is listed as “cocrystal 3” in data set [4] (60° C., 2 weeks); “cocrystal 3” in data set [4] (60° C., 4 weeks); “cocrystal 3” in data set [4] (60° C., 8 weeks). Further, the “XRPD result in intrinsic dissolution” value in data set [5] is reported as “crystalline pterostilbene”.

For “pterostilbene:carbamazepine [cocrystal 2]”, the “Solubility (±standard deviation)” value in data set [6] is 8.5 ± 0.7 µg/mL. The “Results (XRPD)” value in data set [1] (75% RH, 1 week) was “cocrystal 2, no carbamazepine dihydrate”; in data set [1] (75% RH, 4 weeks), “cocrystal 2, no carbamazepine dihydrate”; in data set [1] (75% RH, 1 day), “cocrystal 2, no carbamazepine dihydrate”; in data set [1] (75% RH, 3 days) it was “cocrystal 2, no carbamazepine dihydrate”; in data set [1] (94% RH, 1 week (7 days)), “cocrystal 2, no carbamazepine dihydrate”; in data set [1] (94% RH, 4 weeks), “cocrystal 2, no carbamazepine dihydrate”. Besides, the “Results (XRPD)” value was “cocrystal 2, no carbamazepine dihydrate” in data set [1] (94% RH, 1 day); “cocrystal 2, no carbamazepine dihydrate” in data set [1] (94% RH, 3 days); “cocrystal 2, no carbamazepine dihydrate” in data set [1] (98% RH, 1 week); “cocrystal 2, no carbamazepine dihydrate” in data set [1] (98% RH, 4 weeks); “cocrystal 2, no carbamazepine dihydrate” in data set [1] (98% RH, 1 day); “cocrystal 2, no carbamazepine dihydrate” in data set [1] (98% RH, 3 days). Also, in data set [2], the “Behaviour upon slurrying in water” value is “stable”.
